Results reported in patent publication US20180193472A1, “TRANSPORT PEPTIDES FOR TRANSCELLULAR DELIVERY OF BIOLOGICAL AND THERAPEUTIC AGENTS” (priority 2017, published 2018).
Values belong to the molecule of their own block, whether it stands above or below them. Where a SMILES comes first, the peptide text is derived from it. Where no end group is shown, it is not given here. The star is where a group is joined. 5FAM = O=C1OC2(c3ccc(O)cc3Oc3cc(O)ccc32)c2ccc(C(=O)*)cc21

Experiments:
[1] = system: monolayer of MDCKII cells; assay: Transwell apparent permeability (Papp) across a monolayer of MDCKII cells grown on a porous membrane; assay type: in vitro ADME, canine
Procedure: (§1) The transport peptides of the present invention were identified by modifying peptide sequences and testing these peptides in a Transwell assay measuring in vitro transcellular transport. The Transwell assay consists of two chambers separated from each other by a permeable porous membrane. Cells, most commonly canine kidney epithelial MDCK cells or human intestinal epithelial Caco-2 cells, are grown on the membrane and represent a model biological barrier. The drug, or peptide of interest, is added to the input chamber and the concentration in the receiver chamber is measured after a period of time. The rate at which the drug or peptide permeates across the cells (and the porous membrane) is the rate of drug's concentration increase in the receiver chamber after a period of time. The rate can be calculated and expressed in terms of apparent permeability (Papp), which takes into account the input concentration, the rate of concentration increase in the receiver well, solution volume in the receiver well, and the area of the cell monolayer. Substances with low permeability generally have Papp values on the order of 10^−7 cm/s, and substances with high permeabilities generally have Papp values on the order of 10^−5 cm/s or higher. There are several published reports where the CPPs were investigated for their ability to deliver cargo transcellularly using a Transwell assay: Violini et al reported low permeabilities of 3.1×10^−8 cm/s and 7.4×10^−8 cm/s for TC-radiolabeled Tat 48-57 across Caco-2 and MDCK II cells, respectively.
(§2) The apparent permeabilities (Papp) of four compounds were determined across a monolayer of MDCKII cells, grown on a porous membrane. The four compounds were the following and are represented in FIGS. 2-3: 1) a transport peptide of the present invention, CL, attached to 5-Carboxyfluorescein (MW: 376.3) and designated as [5-FAM]CL peptide, 2) 5-Carboxyfluorescein attached to H3R8 ([5-FAM] H3R8 MW: 2,263.5 and the H3R8 peptide is shown in FIG. 4b) 3) 5-Carboxyfluorescein designated as 5-FAM and 4) Lucifer Yellow designated as LY (MW:457.25, Product Number L-453, Life Technologies). The following concentrations of [5-FAM] CL, [5-FAM] H3R8, 5-FAM, and LY compound were applied to the monolayer of MDCKII cells at approximately 0.2 μM, 0.4-0.9 μM, 4 μM, and 100 μM, respectively. The peptides and dyes were resuspended in HEPES- and glucose-supplemented 1×HBSS buffer. The permeability experiments were conducted for 1 hour at 37° C. Error bars represent standard error (SE). CL and H3R8 are conjugated to 5-FAM at the N-termini. H3R8 is based on oligoarginine CPPs that has been reported to deliver cargo intracellularly. LY is used to assess monolayer integrity (Papp≤10̂−6 cm/s verifies monolayer integrity). The permeability of LY is on the order of 10̂−7 cm/s and is thus consistent with literature values for a monolayer with good barrier properties. [5-FAM]

[2] = as above; assay type: in vitro ADME, canine; settings: MDCK
Procedure: as §1, §2

[3] = system: monolayer of MDCKII cells; assay type: cell-based, canine
From the text: The inventors identified cationic transport peptides that are capable of transcellular delivery of cargo across a monolayer of MDCKII cells grown on a porous membranes. One embodiment of the invention is a CL peptide, conjugated to a fluorescent dye 5-FAM (fluorescein), has a Papp value of (1.3±0.2)×10^−5 cm/s, which approaches the permeability rates of the fast-permeating molecules into the brain (Papp ≈10^−5 to 10^−4 cm/s). The CL peptide, conjugated to 5-FAM, enhanced 30-fold the rate of permeation of 5-FAM across the biological barrier. This is especially significant because MDCKII cells are virtually impermeable to 5-FAM (Papp=(4.1±0.6)×10^−7 cm/s) unless it is conjugated to the novel peptide. In addition, the CL peptide was able to deliver 5-FAM without compromising the junctional integrity of the model cell monolayer. Junctional integrity of the monolayer can be measured by transepithelial electrical resistance (TEER), which signifies resistance to the flow of ions across a cell monolayer. If the tight junctions between the cells are compromised, the TEER decreases.
FIG. 3 illustrates the % TEER change in the monolayer of MDCKII cells. Error bars represent SD with n=3 for all except LY, n=6. […] CL and [5-FAM] […] The data indicates the high permeability rates, observed for a transport peptide of the present invention, [5-FAM] […]

Molecule: O=C(O)c1ccc2c(c1)C(=O)OC21c2ccc(O)cc2Oc2cc(O)ccc21 [5-FAM, 5-Carboxyfluorescein]
apparent permeability (Papp) ([1]; monolayer of MDCKII cells on porous membrane, 1 hour at 37° C, HEPES- and glucose-supplemented 1×HBSS): (4.1±0.6)×10^−7 cm/s

Molecule: CC(=O)N[C@@H](CCCCNC(=O)c1ccc2c(c1)C(=O)OC21c2ccc(O)cc2Oc2cc(O)ccc21)C(=O)NCC(=O)N[C@@H](CCCNC(=N)N)C(=O)N[C@@H](CC(C)C)C(=O)N[C@@H](CC(C)C)C(=O)N[C@@H](CCCNC(=N)N)C(=O)N[C@@H](CC(C)C)C(=O)N[C@@H](CC(C)C)C(=O)N[C@@H](CCCNC(=N)N)C(=O)N[C@@H](CCCNC(=N)N)C(=O)N[C@@H](CCCNC(=N)N)C(=O)N[C@@H](CCCNC(=N)N)C(=O)N[C@@H](CCCNC(=N)N)C(=O)N[C@@H](CCCNC(=N)N)C(=O)N[C@@H](CCCNC(=N)N)C(=O)N[C@@H](CCCNC(=N)N)C(N)=O [[5-FAM] CL] (Ac-K(5FAM)GRLLRLLRRRRRRRR-NH2; N-terminus and C-terminus assumed)
Papp [2]: 13 ×10⁻⁶ cm/s | enhancement of the rate of permeation (Papp) relative to 5-FAM ([1]; MDCK): 30 fold | % TEER change after the permeability experiment [3]: did not result in a significant % TEER decrease

Molecule: HHHRRRRRRRR [H3R8]
ability to deliver 5-FAM across a monolayer of MDCKII cells ([1]; MDCK): not capable to deliver 5-FAM across a monolayer of MDCKII cells

% TEER change after the permeability experiment [3]: did not significantly affect the TEER
Molecule: KGRLLRLLRRRRRRRR [CL peptide]

apparent permeability (Papp) ([1]; MDCK): ~10̂−7 cm/s
Molecule: Lucifer Yellow [LY]
